The results in this text go back to patent US11492335B2, “Aryl or heteroaryl triazolone derivatives or salts thereof, or pharmaceutical compositions comprising the same” (YUHAN CORPORATION, priority 2018, dated 2022).

In general, IC50 refers to the concentration at which inhibition is half-maximal.

Structures can show the parent of a compound that is named as a salt. Where two headings read alike, the source gives them in different places.

Common to all, as to type: biochemical
Test [1] deals with T1, recombinant human MAO-B (monoamine oxidase-B) (Homo sapiens, UniProt P27338).
T1 construct: purchased Sigma-Aldrich
T1 sequence (P27338 1-520): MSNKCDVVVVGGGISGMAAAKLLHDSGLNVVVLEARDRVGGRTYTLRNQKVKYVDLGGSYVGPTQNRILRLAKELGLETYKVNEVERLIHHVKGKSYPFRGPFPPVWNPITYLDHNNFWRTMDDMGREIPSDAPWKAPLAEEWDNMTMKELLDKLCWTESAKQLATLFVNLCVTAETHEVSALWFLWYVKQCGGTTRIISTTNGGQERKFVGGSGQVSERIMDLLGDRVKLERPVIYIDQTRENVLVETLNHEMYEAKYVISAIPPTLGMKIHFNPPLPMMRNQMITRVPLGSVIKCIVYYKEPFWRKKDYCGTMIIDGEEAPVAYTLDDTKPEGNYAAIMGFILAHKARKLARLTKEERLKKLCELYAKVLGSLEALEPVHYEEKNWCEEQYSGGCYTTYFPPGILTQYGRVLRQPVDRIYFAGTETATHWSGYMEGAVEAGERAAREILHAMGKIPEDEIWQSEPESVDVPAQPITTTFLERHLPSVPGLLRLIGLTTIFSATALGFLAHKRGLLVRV
Put plainly: Activity on recombinant human MAO-B, Amplex Red method, 1 mM benzylamine substrate. The settings on record: 1 mM benzylamine, read-out: Inhibitory Activity (IC50, nM) MAO-B. The method in brief:
(§1)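 Amplex Red/HRP coupled read-out of H2O2 with 0.5 mM tyramine for MAO-A or 1 mM benzylamine for MAO-B, following a 30-min compound–enzyme preincubation at 37° C. IC50 from percent inhibition of signal rate relative to uninhibited control.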

Another test concerns the target T2, recombinant human VAP-1 (Homo sapiens, UniProt Q16853).
T2 construct: purchased R&D systems
T2 sequence (Q16853 1-763): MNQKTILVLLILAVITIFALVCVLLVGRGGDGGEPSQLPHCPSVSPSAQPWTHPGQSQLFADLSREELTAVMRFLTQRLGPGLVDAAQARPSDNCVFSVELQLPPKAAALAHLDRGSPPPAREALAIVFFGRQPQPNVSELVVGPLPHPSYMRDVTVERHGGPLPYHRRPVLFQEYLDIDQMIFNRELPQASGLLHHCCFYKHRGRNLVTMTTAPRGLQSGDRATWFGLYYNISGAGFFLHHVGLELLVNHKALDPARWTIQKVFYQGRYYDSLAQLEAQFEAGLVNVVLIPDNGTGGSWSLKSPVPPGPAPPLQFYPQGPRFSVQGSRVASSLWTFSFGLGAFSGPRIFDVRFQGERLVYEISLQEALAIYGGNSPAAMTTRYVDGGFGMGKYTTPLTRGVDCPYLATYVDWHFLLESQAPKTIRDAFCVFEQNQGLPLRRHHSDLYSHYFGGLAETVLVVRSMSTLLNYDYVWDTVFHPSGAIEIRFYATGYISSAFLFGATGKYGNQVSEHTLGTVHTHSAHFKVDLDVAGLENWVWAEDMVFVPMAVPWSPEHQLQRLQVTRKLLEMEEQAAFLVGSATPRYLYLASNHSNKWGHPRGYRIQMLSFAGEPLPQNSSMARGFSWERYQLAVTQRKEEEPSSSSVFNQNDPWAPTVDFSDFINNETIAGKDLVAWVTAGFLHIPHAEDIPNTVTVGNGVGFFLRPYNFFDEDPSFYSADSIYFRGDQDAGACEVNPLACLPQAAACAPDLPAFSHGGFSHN
Briefly: Activity on recombinant human VAP-1, Amplex Red HRP-coupled hydrogen peroxide assay, benzylamine substrate. The settings on record: recombinant human VAP-1, benzylamine substrate, 30 min preincubation at 37° C.; read-out: Inhibitory Activity (IC50, nM) human VAP-1. The method in brief: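 Dose-response IC50 determined from reduction in resorufin signal rate (544/590 nm, 1-2 h), with 30 min compound preincubation at 37 °C and 1 mM benzylamine as substrate.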

Test [2] has as its target T3, recombinant human DAO (diamine oxidase) (Homo sapiens, UniProt P19801).
T3 construct: purchased R&D systems
T3 sequence (P19801 20-751): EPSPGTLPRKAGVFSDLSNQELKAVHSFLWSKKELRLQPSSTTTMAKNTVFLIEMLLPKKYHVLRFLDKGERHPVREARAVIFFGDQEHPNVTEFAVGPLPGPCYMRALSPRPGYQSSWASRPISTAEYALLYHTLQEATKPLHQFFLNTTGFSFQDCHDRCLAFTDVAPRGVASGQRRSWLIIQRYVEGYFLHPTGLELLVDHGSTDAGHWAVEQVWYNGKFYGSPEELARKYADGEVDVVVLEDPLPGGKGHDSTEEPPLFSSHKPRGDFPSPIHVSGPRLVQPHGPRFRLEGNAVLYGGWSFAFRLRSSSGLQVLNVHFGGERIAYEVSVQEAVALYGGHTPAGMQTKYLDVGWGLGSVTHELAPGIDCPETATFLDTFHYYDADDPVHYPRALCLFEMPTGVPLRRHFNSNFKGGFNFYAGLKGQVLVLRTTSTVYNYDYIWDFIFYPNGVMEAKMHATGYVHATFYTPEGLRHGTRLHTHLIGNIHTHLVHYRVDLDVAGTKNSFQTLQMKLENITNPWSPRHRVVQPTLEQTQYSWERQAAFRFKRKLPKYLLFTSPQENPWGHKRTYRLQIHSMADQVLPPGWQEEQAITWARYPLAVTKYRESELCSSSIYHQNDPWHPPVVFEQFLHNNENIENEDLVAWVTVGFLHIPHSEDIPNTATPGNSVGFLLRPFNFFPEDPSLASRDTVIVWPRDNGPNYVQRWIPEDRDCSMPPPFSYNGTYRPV
Put plainly: Activity on recombinant human DAO, Amplex Red method, 1 mM putrescine substrate. The essentials:
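Inhibition of recombinant human DAO (diamine oxidase, R&D systems) was assessed with the Amplex Red Hydrogen Peroxide Assay Kit. Hydrogen peroxide produced from 1 mM putrescine was detected through an HRP-coupled reaction that converts Amplex Red into fluorescent resorufin, read at 544 nm excitation and 590 nm emission. IC50 values came from four-parameter logistic fits in GraphPad Prism.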

Test [3] has as its target T4, recombinant human MAO-A (monoamine oxidase-A) (Homo sapiens, UniProt P21397).
T4 construct: purchased Sigma-Aldrich
T4 sequence (P21397 1-527): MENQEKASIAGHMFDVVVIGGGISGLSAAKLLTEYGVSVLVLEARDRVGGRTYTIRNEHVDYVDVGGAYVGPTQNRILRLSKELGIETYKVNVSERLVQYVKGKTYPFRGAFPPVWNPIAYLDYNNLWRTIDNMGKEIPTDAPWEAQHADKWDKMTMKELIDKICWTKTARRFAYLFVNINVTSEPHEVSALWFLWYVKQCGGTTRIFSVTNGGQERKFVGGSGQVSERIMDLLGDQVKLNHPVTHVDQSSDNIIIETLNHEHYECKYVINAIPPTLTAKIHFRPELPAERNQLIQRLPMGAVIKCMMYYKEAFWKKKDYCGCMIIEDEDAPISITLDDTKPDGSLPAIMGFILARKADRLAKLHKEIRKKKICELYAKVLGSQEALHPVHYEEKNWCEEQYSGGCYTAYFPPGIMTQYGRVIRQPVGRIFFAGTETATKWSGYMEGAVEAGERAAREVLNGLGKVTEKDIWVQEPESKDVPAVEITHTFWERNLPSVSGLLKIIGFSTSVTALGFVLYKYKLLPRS
Put plainly: Activity on recombinant human MAO-A, Amplex Red method, 0.5 mM tyramine substrate. The following applies: 0.5 mM tyramine, read-out: Inhibitory Activity (IC50, nM) MAO-A. The method in brief: as §1

[4] abbreviates: recombinant human DAO, 1 mM putrescine, * = between 10 and 100 nM, ** = between 300 and 1000 nM, read-out: Inhibitory Activity (IC50, nM) DAO.

Turning to `NC/C(=C\F)Cn1ncn(-c2ccc(-c3ccc4c(c3)OCO4)cc2F)c1=O` [Example 45, 2-[(2E)-2-(aminomethyl)-3-fluoroprop-2-en-1-yl]-4-[4-(1,3-benzodioxol-5-yl)-2-fluorophenyl]-2,4-dihydro-3H-1,2,4-triazol-3-one hydrochloride], the half-inhibitory concentration (IC50) in test [1] is below 10 nM; at recombinant human VAP-1, 0.21 nM; in test [2] (setting [4]), 1.6 nM; in test [3], 198 nM.
Take `NC/C(=C\F)Cn1ncn(-c2ccc(-c3ccc4nonc4c3)cc2F)c1=O` [Example 46, 2-[(2E)-2-(aminomethyl)-3-fluoroprop-2-en-1-yl]-4-[4-(2,1,3-benzooxadiazol-5-yl)-2-fluorophenyl]-2,4-dihydro-3H-1,2,4-triazol-3-one hydrochloride]: the IC50 in test [1] was below 10 nM; on recombinant human VAP-1, 0.32 nM; in test [2] (setting [4]) it was 0.76 nM; in test [3], 120 nM.
As to `NC/C(=C\F)Cn1ncn(-c2cccc(C3=CCNCC3)c2)c1=O` [Example 48, 2-[(2E)-2-(aminomethyl)-3-fluoroprop-2-en-1-yl]-4-[3-(1,2,3,6-tetrahydropyridin-4-yl)phenyl]-2,4-dihydro-3H-1,2,4-triazol-3-one dihydrochloride], the concentration for half-maximal inhibition (IC50) in test [1] is above 10000 nM; at recombinant human VAP-1, 0.56 nM; in test [2] it was 0.79 nM; in test [3], above 100000 nM.
For the compound `CC(=O)c1ccc(-c2cccc(-n3cnn(C/C(=C/F)CN)c3=O)c2)s1` [Example 49, 4-[3-(5-acetylthiophen-2-yl)phenyl]-2-[(2E)-2-(aminomethyl)-3-fluoroprop-2-en-1-yl]-2,4-dihydro-3H-1,2,4-triazol-3-one hydrochloride], the IC50 is 800 nM in test [1], 0.2 nM at recombinant human VAP-1, 2.1 nM in test [2] (setting [4]) and above 100000 nM in test [3].
The like results for `NC/C(=C\F)Cn1ncn(-c2cccc(-c3ccc(OC(F)(F)F)cc3)c2)c1=O` [Example 50, 2-[(2E)-2-(aminomethyl)-3-fluoroprop-2-en-1-yl]-4-[4′-(trifluoromethoxy)biphenyl-3-yl]-2,4-dihydro-3H-1,2,4-triazol-3-one hydrochloride] were, in that order, 510 nM, 1 nM, below 100 nM and above 10000 nM.
The like results for `CN(C)c1ccc(-c2cccc(-n3cnn(C/C(=C/F)CN)c3=O)c2)cc1` [Example 51, 2-[(2E)-2-(aminomethyl)-3-fluoroprop-2-en-1-yl]-4-[4′-(dimethylamino)biphenyl-3-yl]-2,4-dihydro-3H-1,2,4-triazol-3-one hydrochloride] were, in that order, 5600 nM, 2 nM, above 10000 nM and above 100000 nM.
Regarding `CC(C)Sc1ccc(-c2cccc(-n3cnn(C/C(=C/F)CN)c3=O)c2)cc1` [Example 52, 2-[(2E)-2-(aminomethyl)-3-fluoroprop-2-en-1-yl]-4-[4′-(propan-2-ylsulfanyl)biphenyl-3-yl]-2,4-dihydro-3H-1,2,4-triazol-3-one hydrochloride], the half-maximal inhibitory concentration (IC50) in test [1] amounted to 3600 nM; at recombinant human VAP-1, 1.2 nM; in test [2] (setting [4]) it was 24 nM; in test [3], 50000 nM.
For `CS(=O)(=O)c1ccc(-c2cccc(-n3cnn(C/C(=C/F)CN)c3=O)c2)cc1` [Example 54, 2-[(2E)-2-(aminomethyl)-3-fluoroprop-2-en-1-yl]-4-[4′-(methylsulfonyl)biphenyl-3-yl]-2,4-dihydro-3H-1,2,4-triazol-3-one hydrochloride], in that order: above 10000 nM, 0.4 nM, below 100 nM and above 100000 nM.
The like results for `CN(C)S(=O)(=O)c1ccc(-c2cccc(-n3cnn(C/C(=C/F)CN)c3=O)c2)cc1` [Example 55, 3′-{1-[(2E)-2-(aminomethyl)-3-fluoroprop-2-en-1-yl]-5-oxo-1,5-dihydro-4H-1,2,4-triazol-4-yl}-N,N-dimethylbiphenyl-4-sulfonamide hydrochloride] were, in that order, 1500 nM, 0.3 nM, 1 nM and above 100000 nM.
Turning to `CC(=O)Nc1ccc(-c2cccc(-n3cnn(C/C(=C\F)CN)c3=O)c2)cc1` [Example 56, N-(3′-{1-[(2Z)-2-(aminomethyl)-3-fluoroprop-2-en-1-yl]-5-oxo-1,5-dihydro-4H-1,2,4-triazol-4-yl}biphenyl-4-yl)acetamide hydrochloride], the concentration for half-maximal inhibition (IC50) is above 10000 nM in test [1], 0.75 nM at recombinant human VAP-1, 110 nM in test [2] (setting [4]) and 5100 nM in test [3].
In the case of `CC(=O)Nc1ccc(-c2cccc(-n3cnn(C/C(=C/F)CN)c3=O)c2)cc1` [Example 57, N-(3′-{1-[(2E)-2-(aminomethyl)-3-fluoroprop-2-en-1-yl]-5-oxo-1,5-dihydro-4H-1,2,4-triazol-4-yl}biphenyl-4-yl)acetamide hydrochloride], the IC50 in test [1] is above 10000 nM; on recombinant human VAP-1, 0.38 nM; in test [2] (setting [4]), below 100 nM; in test [3] it was 1250 nM.
